Data on 3 substances can be found in patent US7241733B2, “Mammalian EPO mimetic CH1 deleted mimetibodies, compositions, methods and uses” (Centocor, Inc., priority 2003, dated 2007).

Entries after “also recorded” stand apart in the source; their conditions may differ.

For series [1] the following is noted: 50% serum; cited from earlier work.
The test system of series [2] is normal mice. Nature of the series: in vivo erythropoiesis (hematocrit) in normal mice. To be noted: equal activity units. Here is the method: (§1) In vivo studies were done in normal mice to compare the half-life of EMP-NfusCG1 to that of rHuEPO and to compare their effects on erythropoiesis. […] Also seen in preliminary studies, when rHuEPO was dosed at 2000 U/kg the hematocrit of the mice was maximally elevated on day 4 and fell back to near baseline levels by day 7. […] The difference in molecular weights was also taken into consideration (rHuEPO=30,400 daltons, EMP-NfusCG1=62,200 daltons).

Series [3] is described as follows: serum concentrations measured by ELISA in normal mice. The format is in vivo. On the procedure: as §1
The serum concentrations of both rHuEPO and EMP-NfusCG1 were measured by ELISA. […] This is consistent with the expected 2 to 8 hour half-life of rHuEPO in rodents. (PRI Expert Report, Part IC2: Toxico-Pharmacological Documentation). In contrast, levels of EMP-NfusCG1 as high as 1.5 ug/mL were detected on day 4 and remained high through the end of the study. The linearity of the clearance profile in FIG. 6 is unusual. It may be that, since the first time point was 3 days after the last injection, the maximum concentration (Cmax) was reached before the first sample was taken and therefore the peak of the exponential curve was not observed. Another explanation is that the absorption and elimination profiles of this novel construct are such that the clearance profile appears linear.
In general terms: An ELISA detects its analyte on a solid surface through an enzyme-linked reagent.

Series [4] concerns cells that express the EPO receptor. Nature of the series: complement lysis of cells that express the EPO receptor. To be noted: preliminary studies. Type of series: cell-based. The text has this:
It has been shown that mutation of two […] (L) residues, L234 & L235, in the IgG1 lower hinge region to alanine (A) will abrogate the ability of the immunoglobulin to mediate complement dependent cytotoxicity (CDC) and antibody dependant cellular cytotoxicity (ADCC) (Hezereh et al., 2001, J. Virol., vol. 75 (24), 12161-68). […] This may be due to the low number of receptors that are found on erythroid progenitor cells. In addition the in vivo expansion of erythriod progenitors as evidenced by significant increases in hematocrit supports the possible functional irrelevance of immune effector functions. However, while no effector function associated affects have been observed, there remains an interest in introducing these mutations as a precautionary step.

In series [5] the test system is EPO dependent UT-7/EPO cell line. Nature of the series: in vitro bioactivity assay: UT-7/EPO cell viability after rHuEPO withdrawal (MTS). Type of series: cell-based, human. On the procedure:
The activity of EMP-NfusCG1 was first tested in an in vitro bioactivity assay. For this assay, the EPO dependent UT-7/EPO cell line, derived from a patient with acute megakaryoblastic leukemia, was used (Komatsu et al., 1993, Blood, vol. 82 (2), 456-464). These cells undergo programmed cell death 48 to 72 hours after withdraw from media supplemented with rHuEPO. Cells that have been incubated in the absence of rHuEPO for 24 hours can be saved if treated with rHuEPO or an EPO agonist. EMP-NfusCG1 was added to cells starved without rHuEPO and cell viability was determined 48 hours after treatment using the tetrazolium compound MTS (CellTiter 96 Aqueous One Solution, Promega) that is metabolized by living cells to yield a product with an absorbance that can be measured. […] In addition, these same cells were stimulated with EMP-NfusCG1 and tyrosine phosphorylation patterns visualized by running cell lysate through a polyacrylamide gel.

For the substance “EMP-1: 20 amino acid peptide with no sequence homology to HuEPO, able (as a dimer) to activate the EPO receptor (GGTYSCHFGPLTWVCKPQGG)”, the ex-vivo half-life in series [1] was 8 h.
Regarding “EMP-NfusCG1: EMP-1 peptide, two Gly-Gly-Gly-Ser repeats, human J region, IgG1 hinge, CH2 and CH3; SEQ ID NO:50”, in series [2], the “duration of hematocrit response compared to rHuEPO” value is “elevated levels are maintained for a longer period; also recorded: prolonged” and the “maximal hematocrit response compared to rHuEPO” value is “significantly higher maximal hematocrit; also recorded: higher maximal response”. Further, the “serum level detected on day 4” value in series [3] (day 4, ELISA) is not above 1500 ng/mL. For the same substance, the approximate half-life in series [3] (normal mice, calculated from serum clearance profile) is approximately 259 h. The “complement lysis of cells that express the EPO receptor” value in series [4] was “does not mediate complement lysis”.
Broadly, the EC50 is the concentration giving half of the maximal effect. Lower therefore signals a more potent agent. Regarding “EMP-NfusCG4: identical to EMP-NfusCG1 except that the hinge and constant regions are of the G4 subtype; SEQ ID NO:51”, the EC50 in series [5] (average) was 0.35 nM. Further, in series [5] (average of assays), the “potency relative to EMP-NfusCG1 (fold less), on average” value is “about 10 fold”. The “expected difference to rHuEPO” value in series [5] (worked out from 10 fold vs EMP-NfusCG1 and 5 fold vs rHuEPO) was “about 50 fold”.
